Measurements taken from patent US20120142550A1, “Vanin 1 as a Peripheral Blood Oxidative Stress Sensor” (priority 2010, published 2012).

Test system: PBMC
Assay: GSH/GSSG ratio by LC-MS/MS in treated PBMC samples
Assay type: cell-based, human
Conditions: 4 PBMC samples, 12 hours
Description: The levels of glutathione (GSH, reduced form) and glutathione disulfide (GSSG, oxidized form) in the whole blood of each subject were determined using a liquid chromatography-tandem mass spectrometry (LC-MS/MS)-based procedure modified from that of Norris et al. (J Chromatogr B Biomed Sci Appl. 2001; 762 (I):17-23) In brief, whole blood was mixed in a 1:4 (v:v) ratio with solution containing n-ethylmaleimide (NEM), sulfosalicylic acid, EDTA and methanol. Supernatants were diluted with stable-isotope internal standards (GSH-^13C, ^15N-NEM and GSSG-^13C, ^15N) and analyzed by LC-MS/MS, using an API 3000 Tandem Mass Spectrometer with Turbulon Ion Spray source, Shimadzu solvent delivery system and LEAP Technology autosampler. GSH (as GSH-NEM) and GSSG were monitored by transitions m/z 433→304 and m/z […] respectively, and data was acquired using Analyst 1.4.
Significance analysis of microarrays (SAM) was conducted for analysis of microarray data to identify differentially expressed genes. The Mann-Whitney test was used in the analysis of real-time PCR validation data. Unpaired t-test was conducted for the comparison of glutathione levels in ITP patients and controls. Paired t-test was carried out for the analysis of differences in GSH/GSSG ratios in cells with or without LPS or sodium arsenite treatments. […]

Compound | GSH/GSSG ratio compared with untreated cells (sodium arsenite 5 μM, p=0.01) | GSH/GSSG ratio compared with untreated cells (LPS 10 ng/ml, p=0.04)
O=[As]O [sodium arsenite] | statistically significant decrease | 
Lipopolysaccharide [LPS] |  | statistically significant decrease
